In brackets after ≈: the same amount, converted by molar mass. Like-named read-outs stand apart in the source and are kept apart here.
Columns and labels:
B16-F10 cell line [1] = settings: read-out: MeJ needed to decrease cell viability in a half; same cell line (B16-F10), previous results; cited from earlier work
Monastrell grapevine = settings: cited from earlier work
[2] = cited from earlier work
[3] = tested on: Monastrell (Vitis vinifera L.) grapevines; test: In vivo field experiments on vineyards, stilbene analysis in wines; settings: for total stilbene concentration in wines: two applications
Protocol: The experiments were conducted in a randomized block design, in which five treatments were applied to three replicates, using 10 vines for each replication. Monastrell (Vitis vinifera L.) grapevines from experimental vineyards located in Cehegin (Murcia, Spain): were sprayed with five treatments, in order to evaluate nano-MeJ efficiency in the field. […] 200 mL of the product was foliarly applied to each plant at veraison. A second application was performed after 7 days. Then, when grapes reached their optimal maturity they were harvested and transported to the winery for winemaking. Vinifications were made in triplicate in 50-L stainless steel tanks using 50 kg of grapes, which were destemmed, crushed, and sulfited (8 g SO2/100 kg). Total acidity was corrected to 5.5 g/L with tartaric acid, and selected yeasts were added (Uvaferm VRB, Lallemand, 25 g/hL). The fermentative pomace contact period was 10 days during which the cap was punched down twice a day, and the temperature and must density were recorded. At the end of alcoholic fermentation, wines were pressed at 1.5 bars in a 75 L tank membrane press and packed in bag-in-box for further analysis.
The extraction method used was described by Guerrero et al. with some modifications. Briefly, 5 mL of wine were extracted with 5 mL of diethyl ether to which 25 μL of internal standard (Trans-4-Hydroxistilbene, 98%) were added. Samples were homogeneized with an Ultraturrax T-25 (Jankel Adnand Kunkel, IKA-Labortechnick, Germany) and stirred at 9600 rpm for 1 minute. […]
Stilbenes were identified and quantified by HPLC. Samples were analysed using a Waters2695 system equipped with a mass detector (Acquity QDA Waters). […] Stilbenes were quantified at 320 nm using trans-resveratrol, trans-piceid, piceatannol and ε-viniferin as external standards.
(§1) Statistical comparisons were analysed with GraphPad Prism software (version 6.0) using one-way or two-way ANOVA and Bonferroni's post hoc test. […] The half inhibitory concentrations (IC50) were calculated by the Graph Pad Prism, using the dose-response sigmoidal curves, p<0.05.

[4] = In vitro nano-MeJ protection assays (drops at 50° C., UV-Vis and Raman); type: physicochemical; settings: dried drops after 24 hours at 50° C.
Protocol: Both of them were kept at 50° C. during 24 h. At scheduled times, the drops were observed using an iScope (Euromex) microscope, in bright field mode and under 40× objective. After 24 hours, the remained samples were analysed by Raman Spectroscopy (JASCO NRS-5100, Jasco International Co. Ltd, Japan) from CIC-UGR. The excitation line was provided by a diode laser emitting at a wavelength of 785 nm. The detector used is a Peltier cooled charge-couple device (CCD, 1024×256 pixels). Before the measurement, the Raman shift of the spectrometer was calibrated using the 520.7 cm-1 peak of crystalline silicon as standard. Each spectrum corresponds to the average of 3 acquisitions of 100 s each. The spectra were linearly base-line corrected for clarity. The same experiment was carried out by depositing on a crystallizer 30 drops of 100 μL of each sample to determine the ratio of protection. […] Then, the sample was centrifuged (12000 rpm, 10 minutes) to remove the nanoparticles before UV-Vis measurements. The ratio of protection (%) was calculated as MeJfinal/MeJinicial×100. Each test was performed in triplicates.

B16-F10 cell line [5] = test: In vitro cytotoxicity assay (MTS); type: cell-based; settings: Mus musculus, 48 h, B16-F10 cells, 2 days incubation, read-out: IC50 (half inhibitory concentration, cell viability)
Protocol: Mouse skin melanoma (B16-F10, ATCC CRL-6322) cell line was purchased from the Cell Bank of CIC-UGR. B16-F10 cells were expanded in Eagle's minimum essential medium (EMEM) with Earle's balanced salt solution (EBSS) supplemented with 2 mM glutamine, and 10% foetal bovine serum (FBS), 1% nonessential amino acids (NEAA) and 1 mM sodium pyruvate (NaP) at 37° C. in a humidified atmosphere of 5% CO2.
Cells were detached from culture flasks by trypsinization, centrifuged and resuspended. Cell number and viability were assessed with the trypan-blue dye exclusion test. Then, 1.0·10^4 cells/well were seeded in a 96 flat transparent well and incubated at 37° C. in a humidified atmosphere of 5% CO2. […] After 2 days incubation, cell viability was evaluated by MTS assay using CellTiter 96® AQueous One Solution Reagent (Promega, Madison, WI) according to the manufacturer's instructions. Briefly, 20 μL of AQueous One Solution Reagent was added to each well and after 2 h of incubation, the absorbance at 490 nm was measured with a spectrophotometer (Infinite® 200 PRO NanoQuant, CIC-UGR). […] Each experiment was done in triplicate.
as §1

Raman micro-analysis for MeJ signals [4]: did not show signals assignable to MeJ
SMILES: CC/C=C\CC1C(=O)CCC1CC(=O)OC (racemic) [MeJ, methyl jasmonate]
IC50 (B16-F10 cell line [1]): 2600 µM
total stilbenes in wines (Monastrell grapevine; foliar application of 10 mM, vs non-treated (control) plants): significant increase
foliar concentration needed to promote stilbene production in grapes and wines (Monastrell grapevine; previous field experiments): 10 mM
solubility in water [2]: 340 µg/mL (≈ 1520 µM)
minimum concentration to observe important effects on stilbenes, elicitor conventionally applied ([3]; foliar application): 10 mM
total stilbene concentration in wines ([3]; foliar spray 5 mM MeJ (MeJ5) at veraison): not enough to produce the same enhancement in stilbene concentration
total stilbene concentration in wines ([3]; foliar spray 10 mM MeJ (MeJ10) at veraison, vs non-treated control): significant (p<0.001) increase
IC50 (B16-F10 cell line [5]): 2200 µM
